# Data taken from PMC3065546 (Pain, 2011).
# Where two headings read alike, the source gives them in different places.
# Assays:
# nociceptive thresholds = format: in vivo, rat; conditions: for Antinociceptive effects of inhibitor alone: icv 50, 250, 500 nmol (fluconazole 250 and 500 nmol), TF or HP; for Antinociception of inhibitor alone: large icv doses (250-500 nmol), 7 – 11 min after administration, TF and HP; for Antagonism of azole-induced antinociception by naltrexone: naltrexone 5 mg/kg i.p. pre-treatment, TF 11 min post-icv azole
# [1] = target: T1, cDNA-expressed human CYP2C19 (Homo sapiens, UniProt P33261); experiment: biochemical
# human κ opioid receptor = human κ opioid receptor (Homo sapiens, UniProt P41145); experiment: Opioid receptor binding, [3H]U69,593, CHO cell membranes
# human δ opioid receptor = human δ opioid receptor (Homo sapiens, UniProt P41143); experiment: Opioid receptor binding, [3H]naltrindole, CHO cell membranes
# improgan antinociception [2] = format: in vivo; conditions: improgan 250 nmol icv, TF
# [3] = system: brain form of heme oxygenase; conditions: ref Suppl. Table 1; cited from earlier work
# improgan antinociception [4] = format: in vivo, mouse; conditions: for Decrease of average improgan antinociception in Cpr^low vs control mice: improgan 145 nmol icv
# human μ opioid receptor = human μ opioid receptor (Homo sapiens, UniProt P35372); experiment: Opioid receptor binding, [3H]DAMGO, CHO cell membranes
# [5] = target: T1, cDNA-expressed human CYP2C19; conditions: read-out: Ki CYP2C19; cited from earlier work
# human H3 receptor = human H3 receptor (Homo sapiens, UniProt Q9Y5N1); format: binding
# Sequence of human H3 receptor (Q9Y5N1 whole entry): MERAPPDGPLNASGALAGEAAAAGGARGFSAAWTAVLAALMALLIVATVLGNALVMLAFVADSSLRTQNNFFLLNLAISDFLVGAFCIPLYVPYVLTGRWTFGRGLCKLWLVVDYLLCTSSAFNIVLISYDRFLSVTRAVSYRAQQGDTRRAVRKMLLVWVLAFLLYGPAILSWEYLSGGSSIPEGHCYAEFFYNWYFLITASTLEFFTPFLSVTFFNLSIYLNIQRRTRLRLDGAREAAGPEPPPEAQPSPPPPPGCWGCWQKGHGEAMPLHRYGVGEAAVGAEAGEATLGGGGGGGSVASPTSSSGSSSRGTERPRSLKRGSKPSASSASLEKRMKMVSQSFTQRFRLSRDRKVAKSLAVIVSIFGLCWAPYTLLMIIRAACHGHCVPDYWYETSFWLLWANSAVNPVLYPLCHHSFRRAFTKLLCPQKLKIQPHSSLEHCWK
# Sequence of human δ opioid receptor (P41143 whole entry): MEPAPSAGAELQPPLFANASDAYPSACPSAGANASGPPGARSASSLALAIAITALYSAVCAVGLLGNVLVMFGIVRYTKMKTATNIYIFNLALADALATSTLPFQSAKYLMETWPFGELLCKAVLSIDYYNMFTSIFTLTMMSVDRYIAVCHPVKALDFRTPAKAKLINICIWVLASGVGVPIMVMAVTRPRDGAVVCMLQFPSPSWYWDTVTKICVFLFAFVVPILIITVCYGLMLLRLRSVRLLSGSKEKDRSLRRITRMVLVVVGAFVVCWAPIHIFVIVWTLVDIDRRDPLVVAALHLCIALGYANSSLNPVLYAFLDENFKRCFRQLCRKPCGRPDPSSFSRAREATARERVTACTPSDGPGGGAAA
# Sequence of human μ opioid receptor (P35372 whole entry): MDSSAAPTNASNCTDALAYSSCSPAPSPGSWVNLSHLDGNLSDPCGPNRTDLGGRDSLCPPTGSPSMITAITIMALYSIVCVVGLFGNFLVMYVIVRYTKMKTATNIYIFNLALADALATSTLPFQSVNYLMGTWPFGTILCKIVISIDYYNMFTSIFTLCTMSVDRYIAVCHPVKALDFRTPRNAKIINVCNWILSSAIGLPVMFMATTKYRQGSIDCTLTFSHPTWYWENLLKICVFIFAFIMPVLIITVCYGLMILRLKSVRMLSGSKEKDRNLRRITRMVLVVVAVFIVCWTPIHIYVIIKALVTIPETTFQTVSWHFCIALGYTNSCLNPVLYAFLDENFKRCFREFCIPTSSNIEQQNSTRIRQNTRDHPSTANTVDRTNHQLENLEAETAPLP
# Sequence of human κ opioid receptor (P41145 whole entry): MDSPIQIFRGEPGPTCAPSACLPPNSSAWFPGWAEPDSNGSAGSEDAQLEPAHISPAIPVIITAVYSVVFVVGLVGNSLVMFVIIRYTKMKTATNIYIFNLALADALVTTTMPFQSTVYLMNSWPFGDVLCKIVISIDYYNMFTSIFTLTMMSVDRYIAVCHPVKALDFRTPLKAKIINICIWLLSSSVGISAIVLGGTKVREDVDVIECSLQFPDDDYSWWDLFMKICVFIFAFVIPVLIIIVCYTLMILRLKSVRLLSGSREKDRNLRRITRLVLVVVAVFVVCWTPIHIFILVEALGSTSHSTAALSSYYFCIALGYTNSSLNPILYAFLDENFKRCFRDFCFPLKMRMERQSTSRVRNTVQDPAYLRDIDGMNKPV
# T1 sequence (P33261 whole entry): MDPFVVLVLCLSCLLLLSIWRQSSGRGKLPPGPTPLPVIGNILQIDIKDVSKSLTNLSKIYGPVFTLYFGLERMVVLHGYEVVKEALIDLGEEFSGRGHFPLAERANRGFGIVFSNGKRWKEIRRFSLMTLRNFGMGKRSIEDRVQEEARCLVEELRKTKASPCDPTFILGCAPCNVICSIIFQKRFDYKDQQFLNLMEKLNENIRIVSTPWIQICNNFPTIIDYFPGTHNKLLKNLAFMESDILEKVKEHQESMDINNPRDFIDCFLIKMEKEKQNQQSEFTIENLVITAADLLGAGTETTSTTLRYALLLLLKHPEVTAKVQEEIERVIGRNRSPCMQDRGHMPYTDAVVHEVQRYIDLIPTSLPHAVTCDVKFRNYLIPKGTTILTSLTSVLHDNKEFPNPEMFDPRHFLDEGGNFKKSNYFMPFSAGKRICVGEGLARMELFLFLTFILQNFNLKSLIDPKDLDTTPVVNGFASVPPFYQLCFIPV
smiles,measurement,setting,value
"Clc1ccccc1C(c1ccccc1)(c1ccccc1)n1ccnc1 [Clotrimazole, clotrimazole]",Antinociceptive effects of inhibitor alone,nociceptive thresholds,no significant antinociceptive effects
same,Ki,[1],316 nM
same,Ki,human κ opioid receptor,260 ± 8.7 nM
same,Ki,human δ opioid receptor,770 ± 25 nM
"OC(Cn1cncn1)(Cn1cncn1)c1ccc(F)cc1F [Fluconazole, fluconazole]",Antagonism of improgan antinociception,improgan antinociception [2]; inhibitor 100 nmol icv,nearly-complete antagonism
same,Antinociceptive effects of inhibitor alone,nociceptive thresholds,no significant antinociceptive effects
same,Inhibition of the brain form of heme oxygenase,[3],do not inhibit
CN/C(=N\C#N)NCCCc1c[nH]cn1 [Improgan],Antinociception in wild-type mice,"improgan antinociception [4]; 145 nmol icv, 10 - 30 min after administration, tail immersion","significant, near-maximal antinociception"
same,Decrease of average improgan antinociception in Cpr^low vs control mice,"improgan antinociception [4]; no CC12, 10 min",59%
same,Decrease of average improgan antinociception in Cpr^low vs control mice,"improgan antinociception [4]; no CC12, 20 min",37%
same,Decrease of average improgan antinociception in Cpr^low vs control mice,"improgan antinociception [4]; no CC12, 30 min",41%
"CC(=O)N1CCN(c2ccc(OCC3COC(Cn4ccnc4)(c4ccc(Cl)cc4Cl)O3)cc2)CC1 (stereo not drawn) [Ketoconazole, ketoconazole]",Antinociception of inhibitor alone,nociceptive thresholds,notable antinociception
same,Antagonism of azole-induced antinociception by naltrexone,nociceptive thresholds,but not that produced by ketoconazole
same,Ki,human μ opioid receptor,> 10000 nM
same,Ki,human κ opioid receptor,> 10000 nM
same,Ki,human δ opioid receptor,> 10000 nM
"C#CCOc1ccccc1CCCCCC(=O)NS(C)(=O)=O [MS-PPOH, N-methylsulfonyl-6-(2-propargyloxyphenyl)hexanamide]",Ki,[5],> 10000 nM
same,Attenuation of improgan antinociception,improgan antinociception [2]; inhibitor 30 nmol icv,virtually complete attenuation
same,Ki,human μ opioid receptor,> 10000 nM
same,Ki,human H3 receptor,22200 nM
same,Ki,human κ opioid receptor,> 10000 nM
same,Ki,human δ opioid receptor,> 10000 nM
"Clc1ccc(COC(Cn2ccnc2)c2ccc(Cl)cc2Cl)c(Cl)c1 (stereo not drawn) [Miconazole, miconazole]",Antagonism of improgan antinociception,improgan antinociception [2]; inhibitor 10 nmol icv,nearly-complete antagonism
same,Antinociception of inhibitor alone,nociceptive thresholds,notable antinociception
same,Antagonism of azole-induced antinociception by naltrexone,nociceptive thresholds,did not achieve robust statistical significance
same,Ki,human μ opioid receptor,1400 nM
same,Ki,human H3 receptor,4470 nM
same,Ki,human κ opioid receptor,760 ± 120 nM
same,Ki,human δ opioid receptor,590 ± 29 nM
"Clc1ccc(CSC(Cn2ccnc2)c2ccc(Cl)cc2Cl)cc1 (stereo not drawn) [Sulconazole, sulconazole]",Antagonism of azole-induced antinociception by naltrexone,nociceptive thresholds,completely blocked
